Each structure is given as a SMILES string. Where “and” joins values, the source holds several entries; their conditions need not be identical. Equal entries are not always repeated.

A short description of the data set: solvent given as SMILES.

As to `Nc1ccc2cc(-c3ccc(C(F)(F)F)cc3)oc(=O)c2c1`, the emission maximum (in CC(C)=O) worked out at 439 nm; the emission maximum (in CCCCCC) is 418 nm; the emission maximum (in CCCCO) is recorded as 460 nm; the emission maximum (in CCCO) came to 459 nm; the emission maximum (in CCO) is listed as 460 nm; the emission maximum (in CCOC(C)=O) was found to be 436 nm. For the same compound, the emission maximum by setting is: (in CN(C)C=O) 448 nm; (in CO) 461 nm; (in ClC(Cl)Cl) 438 nm.

For the compound `Cc1ccccc1C1=C2C=c3c(oc4ccccc34)=[N+]2[B-](F)(F)n2c1cc1c3ccccc3oc12`, the emission maximum (in C1CCCCC1) is given as 595.5 nm, the emission maximum (in CCOC(C)=O) was found to be 595 nm and the emission maximum (in CO) amounted to 595 nm.

On to `CCCCCCOc1ccc(N(c2ccc(OCCCCCC)cc2)c2ccc(-c3sc(-c4ccc(N(c5ccc(OCCCCCC)cc5)c5ccc(OCCCCCC)cc5)cc4)c4nc(-c5ccccc5)c(-c5ccccc5)nc34)cc2)cc1`, for which the emission maximum was 770 nm (in C1CCOC1); 793 nm (in CC(C)=O); 768 nm (in CCOC(C)=O); 751 nm (in CCOCC); 806 nm (in CN(C)C=O); 748 nm (in Cc1ccccc1). Also, the emission maximum reads like this: (in ClC(Cl)Cl) 777 nm; (in ClCCl) 793 nm.

Compound `O=C1c2ccccc2-c2nc3c(F)c(F)c(F)c(F)c3n21` came in with an emission maximum (in ClCCl) of 485 nm.

As for `CC1=[N+]2C(=C(c3c4ccccc4cc4ccccc34)c3ccc(C)n3[B-]2(F)F)C=C1`, the emission maximum is, setting by setting: (in C1CCOC1) 528 nm; (in CC#N) 524 nm; (in CCCCCC) 524 nm and 528 nm; (in CCO) 524 nm; (in CN(C)C=O) 531 nm; (in CO) 527 nm. Also, the emission maximum was determined as 529 nm (in CS(C)=O), 530 nm (in Cc1ccccc1), 526 nm (in ClC(Cl)Cl) and 528 nm (in ClCCl).

For the compound `O=Cc1ccc(-c2ccc(C3=CCC(c4ccccc4)CC3)s2)s1` (configuration not stated), the emission maximum is listed as 446 nm (in C1CCOC1); 483 nm (in CC#N); 443 nm (in CCCCCC); 498 nm (in CCO); 506 nm (in OCCOCCO); 481 nm (in c1ccncc1).

`CN1C(=CC2=C([S-])C(=CC3=[N+](C)c4ccccc4C3(C)C)C2=O)C(C)(C)c2ccccc21` showed an emission maximum (in ClC(Cl)Cl) of 663 nm.

On to `O=c1c2ccc(N3CCCCC3)cc2oc2cc(N3CCCCC3)ccc12`, for which the emission maximum runs as follows: (in CO) 448.15 nm; (in ClCCl) 407.47 nm.

For the compound `COc1cc(N(CC(=O)[O-])CC(=O)[O-])c2ncccc2c1`, where the note is “in O”, the emission maximum is 487 nm.

Turning to `COc1cc2cc(OC)c(C#Cc3ccc([N+](=O)[O-])cc3)cc2cc1C#Cc1ccc([N+](=O)[O-])cc1`, the emission maximum reads like this: (in C1CCOC1) 514 nm; (in ClC(Cl)Cl) 577 nm; (in ClCCl) 593 nm.

For the compound `Cc1cc(C)c(C2=C3C=C(c4ccc(C(C)(C)C)cc4)C(c4ccc(C(C)(C)C)cc4)=[N+]3[B-](F)(F)n3c2cc(-c2ccc(C(C)(C)C)cc2)c3-c2ccc(C(C)(C)C)cc2)c(C)c1`, the emission maximum amounted to 639 nm (in C1CCCCC1); 628 nm (in C1CCOC1); 643 nm (in CC#N); 645 nm (in Cc1ccccc1); 644 nm (in ClCCl).

With `Cc1cc(N2c3ccccc3C(C)(C)c3ccccc32)ccc1-c1ncnc(-c2ccc(N3c4ccccc4C(C)(C)c4ccccc43)cc2C)c1C`, the emission maximum runs as follows: (in Cc1ccccc1) 454 nm; (in O=P(c1ccccc1)(c1ccccc1)c1ccccc1Oc1ccccc1P(=O)(c1ccccc1)c1ccccc1) 454 nm.

Consider `c1ccc(N(c2ccccc2)c2ccc(-n3ccc4cc(-c5ccc(C6(c7ccccc7)c7ccccc7-c7ccccc76)cc5)ccc43)cc2)cc1`, for which the emission maximum (in ClCCl) is 379 nm.

`[O-]c1c(-c2nc3ccccc3s2)cc2ccc3cccc4ccc1c2c34`: the emission maximum runs as follows: (in CC#N) 553.72 nm; (in CS(C)=O) 555 nm.

Turning to `CCCCC1(CCCC)c2cc(C#Cc3ccc(/C=C(\C)c4ccccc4)cc3)ccc2-c2ccc(C#Cc3ccc(/C=C(\C)c4ccccc4)cc3)cc21`, the emission maximum (in C1CCOC1) is given as 403 nm.

Regarding `CC(=O)Nc1ccc2c3c(cccc13)C(=O)c1ccccc1-2`, the emission maximum runs as follows: (in CC#N) 539.96 nm; (in CC(C)=O) 526.04 nm; (in CC(C)O) 567.86 nm; (in CCCCOCCCC) 507.1 nm; (in CCOC(C)=O) 520.02 nm; (in CCOCC) 518.13 nm. Further, the emission maximum runs as follows: (in CO) 573.07 nm; (in Cc1ccccc1) 516 nm; (in Clc1ccccc1) 520.02 nm; (in N#Cc1ccccc1) 527.98 nm; (in O=C1CCCCC1) 526.87 nm.

For the setting “in O”, `CCN(CC)c1ccc2c(c1)C(C)(C)C(=O)C=C2` yielded an emission maximum of 552 nm.

Compound `CCCCCCCCCn1c(-c2cc(-c3nc4ccccc4n3CCCCCCCCC)cc(-c3nc4ccccc4n3CCCCCCCCC)c2)nc2ccccc21` yielded an emission maximum (in C1CCOC1) of 361.1 nm.

As to `CCn1c2ccccc2c2cc(C#Cc3cc(C#Cc4ccc5c(c4)c4ccccc4n5CC)nc(S(C)(=O)=O)n3)ccc21`, the emission maximum stood at 496 nm (in C1CCOC1); 491 nm (in CCOC(C)=O); 550 nm (in CN(C)C=O); 447 nm (in Cc1ccccc1); 510 nm (in ClCCl).

The compound `C(#Cc1cc2ccc3cc(C#Cc4ccccc4)cc4ccc(c1)c2c34)c1ccccc1` had an emission maximum (in Cc1ccccc1) of 418 nm.

As to `CC1CCC(=CS/C=C/c2ccc(/C=C/SC=C3CCC(C)CC3)cc2)CC1` (configuration not stated), the emission maximum (in ClCCl) is listed as 427 nm.

`CCCCCCCCn1cc(-n2c(-c3cc(-c4nc5ccc(C)cc5n4-c4cn(CCCCCCCC)nn4)cc(-c4nc5ccc(C)cc5n4-c4cn(CCCCCCCC)nn4)c3)nc3ccc(C)cc32)nn1` showed an emission maximum (in C1CCOC1) of 382.5 nm.

Take `CC(C)(C)c1ccc2c(c1)sc1[n+]2[B-](F)(F)n2c(c3cccc4c(Br)ccc2c43)=C1C#N`: the emission maximum reads like this: (in C1CCOC1) 563 nm; (in CC#N) 558 nm; (in CCCCCC) 558 nm; (in Cc1ccccc1) 563 nm; (in ClCCl) 560 nm.

For the setting “in ClC(Cl)Cl”, `CCc1cc(CC)cc(-n2c3ccccc3c3cc4c(cc32)c2ccccc2n4-c2cc(CC)cc(CC)c2)c1` yielded an emission maximum of 416 nm.

As for `COc1ccc(-c2c3ccccc3c3n2[B-](F)(F)[N+]2=Cc4c5ccccc5c(-c5ccc(OC)cc5)n4[B-](F)(F)[N+]2=C3)cc1`, the emission maximum (in CC#N) amounted to 606 nm; the emission maximum (in CCCCCC) amounted to 607 nm; the emission maximum (in CN(C)C=O) was determined as 613 nm; the emission maximum (in Cc1ccccc1) is 616 nm; the emission maximum (in ClCCl) is on record as 614 nm.

The compound `CC1(C)c2ccccc2N(c2ccc(-c3nc4cc(C#N)c(C#N)cc4nc3-c3ccc(N4c5ccccc5C(C)(C)c5ccccc54)cc3)cc2)c2ccccc21` showed an emission maximum (in Cc1ccccc1) of 620 nm.

Regarding `N#Cc1ccc(-c2ccc3c(c2)c2cc(-c4ccc(C#N)cc4)ccc2c2c3nc(-c3ccc(N(c4ccccc4)c4ccccc4)cc3)n2-c2ccccc2)cc1`, the emission maximum was 449.94 nm (in C1CCOC1), 479.9 nm (in CC#N), 419.62 nm (in CCCCCC) and 439.6 nm (in CCOCC).

These data come from the Deep4Chem optical property database.
